Tests used:
[1] = tested on: NCI-H1694 (Small Cell Lung Carcinoma); assay: Bliss excess, mean over the matrix (fraction); higher = more synergy
In short: (§1)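 Cell lines in DMEM/F12 or RPMI with 10% FBS were plated in 1536-well plates, held 24 hours at 37°C, 5% CO2, then given two-drug dose matrices for 72 hours (DMSO typically 0.2%). Viability was read by CellTiter-Glo 2.0 luminescence and scaled as inhibition from 0 (vehicle wells) to 1 (blank wells). Combination Emax is the second-highest inhibition in the matrix; Bliss excess is observed combination effect minus expected EA + EB − EA·EB, EA and EB being single-agent effects.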

[2] = tested on: OCI-AML2 (Acute Myeloid Leukemia); assay: as above
In short: as §1

[3] = tested on: KARPAS-1106P (B-Cell Non-Hodgkin's Lymphoma); assay: as above
In short: as §1

[4] = tested on: J82 (Bladder Carcinoma); assay: as above
In short: as §1

[5] = tested on: DB (B-Cell Non-Hodgkin's Lymphoma); assay: as above
In short: as §1

[6] = tested on: COR-L95 (Small Cell Lung Carcinoma); assay: as above
In short: as §1

[7] = tested on: TGBC24TKB (Biliary Tract Carcinoma); assay: as above
In short: as §1

[8] = tested on: ES7 (Ewing's Sarcoma); assay: as above
In short: as §1

[9] = tested on: NCI-H2369 (Mesothelioma); assay: as above
In short: as §1

[10] = tested on: SW1783 (Low Grade Glioma); assay: as above
In short: as §1

[11] = tested on: SW1990 (Pancreatic Carcinoma); assay: as above
In short: as §1

[12] = tested on: KARPAS-620 (Plasma Cell Myeloma); assay: combination Emax (second highest fraction inhibited in the dose matrix, 72 h); higher = more inhibition; extreme values may be limits of the assay
In short: as §1

[13] = tested on: NCI-H1694 (Small Cell Lung Carcinoma); assay: as above
In short: as §1

[14] = tested on: TE-5 (Esophageal Squamous Cell Carcinoma); assay: as above
In short: as §1

[15] = tested on: EM-2 (Chronic Myelogenous Leukemia); assay: as above
In short: as §1

[16] = tested on: KARPAS-1106P (B-Cell Non-Hodgkin's Lymphoma); assay: as above
In short: as §1

[17] = tested on: U-266 (Plasma Cell Myeloma); assay: as above
In short: as §1

[18] = tested on: SUIT-2 (Pancreatic Carcinoma); assay: as above
In short: as §1

[19] = tested on: RH-1 (Ewing's Sarcoma); assay: as above
In short: as §1

[20] = tested on: ES7 (Ewing's Sarcoma); assay: as above
In short: as §1
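Throughout, for Bliss excess, mean over the matrix: after 72 h of two-drug dosing.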

Compound	Bliss excess [1]	Bliss excess [2]	Bliss excess [3]	Bliss excess [4]	Bliss excess [5]	Bliss excess [6]	Bliss excess [7]	Bliss excess [8]	Bliss excess [9]	Bliss excess [10]	Bliss excess [11]	combination Emax [12]	combination Emax [13]	combination Emax [14]	combination Emax [15]	combination Emax [16]	combination Emax [17]	combination Emax [18]	combination Emax [19]	combination Emax [20]
COc1nnc2ccc(N3CCC(c4ccc(OCCN5CCN(C)C(=O)[C@H]5C)cc4)CC3)nn12 [AZD5153] + Cc1c2c(nn1C)CSCc1cc(n(C)n1)CSc1cc(c3ccccc3c1)OCCCc1c(C(=O)O)n(C)c3c-2c(Cl)ccc13 [AZD5991] (first compound max 1 µM, 7x7, partner max 1 µM)	0.0992	-0.0185	0.0005	0.0439	0.0507	-0.0167	0.0447	0.0052	-0.0499	-0.0024	-0.0477	1	0.992	0.407	0.988	1	0.899	0.462	0.937	0.928
CC1(C)CCC(CN2CCN(c3ccc(C(=O)NS(=O)(=O)c4ccc(NCC5CCOCC5)c([N+](=O)[O-])c4)c(Oc4cnc5[nH]ccc5c4)c3)CC2)=C(c2ccc(Cl)cc2)C1 [Venetoclax] + CN(C)CCCOc1ccc(-c2ccc3ncc4c(c3c2)n(C2CCOCC2)c(=O)n4C)cn1 [AZD0156] (first compound max 1 µM, 7x7, partner max 1 µM)	-0.0001	-0.0267	0.0261	0.0014	-0.0166	0.0051	0.0307	0.0317	-0.0298	-0.0532	-0.0056	0.989	0.14	0.271	0.174	0.552	0.56	0.207	0.221	0.925
Cn1cnc2c(F)c(Nc3ccc(Br)cc3Cl)c(C(=O)NOCCO)cc21 [Selumetinib] + C=CCn1c(=O)c2cnc(Nc3ccc(N4CCN(C)CC4)cc3)nc2n1-c1cccc(C(C)(C)O)n1 [AZD1775] (first compound max 10 µM, partner max 1 µM)	-0.067	0.0274	-0.0358	-0.0614	-0.193	-0.0464	-0.0027	-0.0548	-0.0624	-0.0939	0.0134	0.849	0.371	0.292	0.92	0.782	0.847	0.588	1	0.486
C=CCn1c(=O)c2cnc(Nc3ccc(N4CCN(C)CC4)cc3)nc2n1-c1cccc(C(C)(C)O)n1 [AZD1775] + C[C@@H]1COCCN1C2=NC(=NC(=C2)C3(CC3)[S@](=N)(=O)C)C4=C5C=CNC5=NC=C4 [AZD6738] (first compound max 1 µM, partner max 10 µM)	0.0818	0.0349	0.0072	0.0305	-0.0023	-0.101	-0.0018	0.0753	-0.0395	-0.0432	-0.0352	0.753	0.883	0.577	0.977	0.886	0.707	0.728	1	0.903
NC1(C(=O)N[C@@H](CCO)c2ccc(Cl)cc2)CCN(c2ncnc3[nH]ccc23)CC1 [Capivasertib] + COc1nnc2ccc(N3CCC(c4ccc(OCCN5CCN(C)C(=O)[C@H]5C)cc4)CC3)nn12 [AZD5153] (first compound max 10 µM, 7x7, partner max 1 µM)	0.0007	0.0068	0.0728	0.0421	-0.0003	-0.0272	0.0597	0.104	0.004	0.0324	-0.0086	0.897	0.523	0.609	0.958	0.979	0.38	0.535	0.699	0.811
CC1(C)CCC(CN2CCN(c3ccc(C(=O)NS(=O)(=O)c4ccc(NCC5CCOCC5)c([N+](=O)[O-])c4)c(Oc4cnc5[nH]ccc5c4)c3)CC2)=C(c2ccc(Cl)cc2)C1 [Venetoclax] + Cc1cc2ncnn2cc1Nc1ncc2c(n1)n(C1CCOCC1)c(=O)n2C [AZD7648] (first compound max 1 µM, 7x7, partner max 10 µM)	-0.0247	0.0273	-0.0672	-0.0202	0.0225	-0.039	0.0423	-0.0735	-0.0273	-0.0395	-0.0426	0.989	0.223	0.284	0.254	0.458	0.511	0.198	0.242	0.714
CN(CCO)CC[C@H](CSc1ccccc1)Nc1ccc(S(=O)(=O)NC(=O)c2ccc(N3CCC([C@@H](O)c4ccccc4-c4ccc(Cl)cc4)CC3)cc2)cc1S(=O)(=O)C(F)(F)F [AZD4320] + C=CCn1c(=O)c2cnc(Nc3ccc(N4CCN(C)CC4)cc3)nc2n1-c1cccc(C(C)(C)O)n1 [AZD1775] (first compound max 1 µM, partner max 1 µM)	0.0834	0.0312	0.028	-0.107	0.0616	0.0519	-0.0323	0.136	-0.0413	0.0433	0.0307	1	0.906	0.663	0.99	0.963	0.95	0.491	0.986	0.935
CN(C)CCCOc1ccc(-c2ccc3ncc4c(c3c2)n(C2CCOCC2)c(=O)n4C)cn1 [AZD0156] + CCN(CCO)CCCOc1ccc2c(Nc3cc(CC(=O)Nc4cccc(F)c4)[nH]n3)ncnc2c1 [AZD2811] (first compound max 1 µM, 7x7, partner max 1 µM)	0.0516	0.0665	-0.0003	0.0201	-0.0221	-0.0116	-0.0009	-0.0172	-0.0392	-0.0452	-0.0536	0.693	0.278	0.1	0.852	0.244	0.299	0.13	0.956	0.799
CC1(C)CCC(CN2CCN(c3ccc(C(=O)NS(=O)(=O)c4ccc(NCC5CCOCC5)c([N+](=O)[O-])c4)c(Oc4cnc5[nH]ccc5c4)c3)CC2)=C(c2ccc(Cl)cc2)C1 [Venetoclax] + C1CN(CCC1(C(=O)N[C@@H](CCO)C2=CC=C(C=C2)Cl)N)C3=NC=NC4=C3C=CN4 [Capivasertib] (first compound max 1 µM, 7x7, partner max 3 µM)	-0.0418	0.0444	-0.0409	-0.0827	0.0332	0.0145	0.0325	-0.0178	-0.0422	-0.0494	-0.064	1	0.179	0.255	0.338	0.492	0.555	0.129	0.213	0.8
CC1(C)CCC(CN2CCN(c3ccc(C(=O)NS(=O)(=O)c4ccc(NCC5CCOCC5)c([N+](=O)[O-])c4)c(Oc4cnc5[nH]ccc5c4)c3)CC2)=C(c2ccc(Cl)cc2)C1 [Venetoclax] + CCN(CCO)CCCOc1ccc2c(Nc3cc(CC(=O)Nc4cccc(F)c4)[nH]n3)ncnc2c1 [AZD2811] (first compound max 1 µM, 7x7, partner max 1 µM)	0.0477	0.0892	-0.0125	-0.014	0.0416	0.0474	0.005	0.0074	-0.015	-0.0192	0.0024	1	0.485	0.29	0.864	0.46	0.614	0.187	0.951	0.911
Cc1c2c(nn1C)CSCc1cc(n(C)n1)CSc1cc(c3ccccc3c1)OCCCc1c(C(=O)O)n(C)c3c-2c(Cl)ccc13 [AZD5991] + C[C@@H](Nc1cc(F)cc(F)c1)c1cc(C(=O)N(C)C)cc2c(=O)cc(N3CCOCC3)oc12 [AZD8186] (first compound max 1 µM, 7x7, partner max 3 µM)	0.0151	-0.0721	0.0154	0.0359	-0.0287	-0.0012	0.0027	0.0995	-0.004	0.0037	-0.0948	1	0.953	0.191	0.259	0.997	0.894	0.175	0.827	0.95
COc1nnc2ccc(N3CCC(c4ccc(OCCN5CCN(C)C(=O)[C@H]5C)cc4)CC3)nn12 [AZD5153] + C[C@@H]1COCCN1C2=NC(=NC(=C2)C3(CC3)[S@](=N)(=O)C)C4=C5C=CNC5=NC=C4 [AZD6738] (first compound max 1 µM, 7x7, partner max 10 µM)	0.008	-0.0143	-0.0455	0.104	0.0071	-0.0357	0.0292	-0.0245	0.0409	0.0235	-0.0424	0.835	0.921	0.503	0.998	0.944	0.412	0.671	0.957	0.952

Source: the supplement of paper PMC11061612
